This is an account of results in the supplement of paper PMC11208160.
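Further: IS621 recombinase and bridge RNA in Escherichia coli cells.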

The data set can be described thus: recombinant barcode read abundance after kanamycin selection (control-corrected) (log10(CPM+1)); higher = more efficient recombination; sequences stand for … in AGTGCAGAGAAAATCGGCCAGTTTTCTCTGCCTGCAGTCCGCATGCCGT…AGATTTATGCAGCGGACTGCCTTTCTCCCAAAGTGATAAACCGGACAGTATCATGGACCGGTTTTCCCGGTAATCCGTATTTGCAAGGTTGGTTTCACT; site = the 11-nt target. The method, boiled down: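 The screen was pooled in E. coli and paired targets with IS621 bridge RNA target-binding loops. Recombination efficiency is taken from barcode counts per million at recombinant junctions, averaged and adjusted against the control. Values, in the form log10(CPM+1), come from duplicate plating on chloramphenicol/ampicillin LB agar or on chloramphenicol/ampicillin/kanamycin with 0.1 mM IPTG.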
For the sequence “CGTATAGCTTGGGTTCTAACCTGTTGCCT (site CGTGAAGCTAG)”, the “recombinant barcode read abundance (log10)” value turned out to be 0.0599.

For the sequence “CGTATATCTTGGGTTCTAACCTGTTGCCT (site CGTATATCTAG)”, the “recombinant barcode read abundance (log10)” value was 0.

On to “CGTATATCTTGGGTTCTAACCTGTTGCCT (site CGTGTAACTAG)”, for which the “recombinant barcode read abundance (log10)” value is 0.0247.

On to “CGTATCCCTTGGGTTCTAACCTGTTGCTG (site CGTATCCCTCA)”, for which the “recombinant barcode read abundance (log10)” value was determined as 0.692.

As to “CGTATCCCTTGGGTTCTAACCTGTTGCTG (site CGTCTCCCTAA)”, the “recombinant barcode read abundance (log10)” value came out at 0.155.

Turning to “CGTATCTCTTGGGTTCTAACCTGTTGCCT (site CCAATCTCTAG)”, the “recombinant barcode read abundance (log10)” value came to 0.063.

Regarding “CGTATCTCTTGGGTTCTAACCTGTTGCCT (site CGTATCTCTAG)”, the “recombinant barcode read abundance (log10)” value is 0.406.

On to “CGTATGACTTGGGTTCTAACCTGTTGCCT (site AGTATGACTAG)”, for which the “recombinant barcode read abundance (log10)” value was 0.28.

As to “CGTATGACTTGGGTTCTAACCTGTTGCCT (site CGTATGACTAG)”, the “recombinant barcode read abundance (log10)” value was found to be 0.0395.

Regarding “CGTATGACTTGGGTTCTAACCTGTTGCCT (site GGTATGACTAG)”, the “recombinant barcode read abundance (log10)” value amounted to 0.103.

Take “CGTATGACTTGGGTTCTAACCTGTTGCCT (site TGTATGACTAG)”: the “recombinant barcode read abundance (log10)” value came to 0.05.

In the case of “CGTCAGCCTTGGGTTCTAACCTGTTGCCT (site CGTCAACCTAG)”, the “recombinant barcode read abundance (log10)” value amounted to 0.0431.

“CGTCAGCCTTGGGTTCTAACCTGTTGCCT (site CGTCACCCTAG)”: the “recombinant barcode read abundance (log10)” value is 0.0486.

In the case of “CGTCAGCCTTGGGTTCTAACCTGTTGCCT (site CGTCAGCCTAG)”, the “recombinant barcode read abundance (log10)” value turned out to be 0.22.

On to “CGTCAGCCTTGGGTTCTAACCTGTTGCCT (site CGTCATCCTAG)”, for which the “recombinant barcode read abundance (log10)” value was found to be 0.0681.

In the case of “CGTCGACCTTGGGTTCTAACCTGTTGCAT (site ACCTCTTCTTA)”, the “recombinant barcode read abundance (log10)” value was determined as 0.0126.

Regarding “CGTCGACCTTGGGTTCTAACCTGTTGCAT (site CGTCGACCTAT)”, the “recombinant barcode read abundance (log10)” value was 0.128.

For “CGTCGGACTTGGGTTCTAACCTGTTGCAG (site CGTCGGACTCT)”, the “recombinant barcode read abundance (log10)” value worked out at 0.3.

Consider “CGTCGGACTTGGGTTCTAACCTGTTGCAG (site TAGTTTGCTTC)”, for which the “recombinant barcode read abundance (log10)” value turned out to be 0.0182.

With “CGTCTAGCTTGGGTTCTAACCTGTTGCAT (site CGTCTAGCTAT)”, the “recombinant barcode read abundance (log10)” value was determined as 0.255.

Regarding “CGTCTAGCTTGGGTTCTAACCTGTTGCAT (site TCGGCCTCTTA)”, the “recombinant barcode read abundance (log10)” value is 0.0729.

Regarding “CGTGACCCTTGGGTTCTAACCTGTTGCTT (site CGGGACCCTAG)”, the “recombinant barcode read abundance (log10)” value was 0.0226.

“CGTGACCCTTGGGTTCTAACCTGTTGCTT (site CGTGACCCTAA)”: the “recombinant barcode read abundance (log10)” value was found to be 0.691.

As for “CGTGAGACTTGGGTTCTAACCTGTTGCCT (site CGTAAGACTAG)”, the “recombinant barcode read abundance (log10)” value is 0.341.

With “CGTGAGACTTGGGTTCTAACCTGTTGCCT (site CGTCAGACTAG)”, the “recombinant barcode read abundance (log10)” value amounted to 0.203.

For the sequence “CGTGAGACTTGGGTTCTAACCTGTTGCCT (site CGTGAGACTAG)”, the “recombinant barcode read abundance (log10)” value turned out to be 1.48.

Regarding “CGTGAGACTTGGGTTCTAACCTGTTGCCT (site CGTTAGACTAG)”, the “recombinant barcode read abundance (log10)” value amounted to 0.0487.

On to “CGTGGAGCTTGGGTTCTAACCTGTTGCCA (site CGTCTAGCTTG)”, for which the “recombinant barcode read abundance (log10)” value was determined as 0.136.

For “CGTGGAGCTTGGGTTCTAACCTGTTGCCA (site CGTGGAGCTTG)”, the “recombinant barcode read abundance (log10)” value stood at 0.836.

For “CGTGGTCCTTGGGTTCTAACCTGTTGCAT (site CGTGGTCCTAA)”, the “recombinant barcode read abundance (log10)” value was 0.414.

“CGTGGTCCTTGGGTTCTAACCTGTTGCAT (site CGTGGTCCTAC)”: the “recombinant barcode read abundance (log10)” value was found to be 0.809.

In the case of “CGTGGTCCTTGGGTTCTAACCTGTTGCAT (site CGTGGTCCTAG)”, the “recombinant barcode read abundance (log10)” value came out at 0.398.

Regarding “CGTGGTCCTTGGGTTCTAACCTGTTGCAT (site CGTGGTCCTAT)”, the “recombinant barcode read abundance (log10)” value came out at 1.25.

As for “CGTGTAACTTGGGTTCTAACCTGTTGCTT (site CGAGCAACTAA)”, the “recombinant barcode read abundance (log10)” value came to 0.0308.

In the case of “CGTGTAACTTGGGTTCTAACCTGTTGCTT (site CGTGTAACTAA)”, the “recombinant barcode read abundance (log10)” value amounted to 0.212.

Regarding “CGTTATTCTTGGGTTCTAACCTGTTGCCT (site CGGAATTCTAG)”, the “recombinant barcode read abundance (log10)” value was found to be 0.115.

On to “CGTTATTCTTGGGTTCTAACCTGTTGCCT (site CGTTATTCTAG)”, for which the “recombinant barcode read abundance (log10)” value was 0.0118.

Consider “CGTTCACCTTGGGTTCTAACCTGTTGCAT (site ACAAATACTCC)”, for which the “recombinant barcode read abundance (log10)” value worked out at 0.0056.

As to “CGTTCACCTTGGGTTCTAACCTGTTGCAT (site CGTTCACCTAT)”, the “recombinant barcode read abundance (log10)” value turned out to be 0.499.

With “CGTTCCTCTTGGGTTCTAACCTGTTGCCT (site CATTCCTCTAG)”, the “recombinant barcode read abundance (log10)” value came out at 0.0798.

Regarding “CGTTCCTCTTGGGTTCTAACCTGTTGCCT (site CCTTCCTCTAG)”, the “recombinant barcode read abundance (log10)” value came out at 0.016.

“CGTTCCTCTTGGGTTCTAACCTGTTGCCT (site CGTTCCTCTAG)”: the “recombinant barcode read abundance (log10)” value amounted to 0.519.

Regarding “CGTTCCTCTTGGGTTCTAACCTGTTGCCT (site CTTTCCTCTAG)”, the “recombinant barcode read abundance (log10)” value turned out to be 0.0942.

Take “CTAAAAGCTTGGGTTCTAACCTGTTGCAA (site CTAAAAGCTTT)”: the “recombinant barcode read abundance (log10)” value stood at 0.501.

As for “CTAAAAGCTTGGGTTCTAACCTGTTGCAA (site GGCTGTCCTAC)”, the “recombinant barcode read abundance (log10)” value was 0.628.

For “CTAAAGACTTGGGTTCTAACCTGTTGCAC (site CCAAAGACTAT)”, the “recombinant barcode read abundance (log10)” value is 0.0891.

With “CTAAAGACTTGGGTTCTAACCTGTTGCAC (site CTAAAGACTGT)”, the “recombinant barcode read abundance (log10)” value amounted to 1.42.

As to “CTAAATACTTGGGTTCTAACCTGTTGCCT (site CTAAATACTAG)”, the “recombinant barcode read abundance (log10)” value was determined as 0.17.

For “CTAAATACTTGGGTTCTAACCTGTTGCCT (site CTAAATACTTA)”, the “recombinant barcode read abundance (log10)” value turned out to be 0.0116.

With “CTAAATACTTGGGTTCTAACCTGTTGCGT (site CTAAATACTAC)”, the “recombinant barcode read abundance (log10)” value was determined as 1.54.

As for “CTAAATACTTGGGTTCTAACCTGTTGCGT (site CTACATTCTAC)”, the “recombinant barcode read abundance (log10)” value amounted to 0.00955.

With “CTAAGAACTTGGGTTCTAACCTGTTGCGT (site CTAAGAACTAA)”, the “recombinant barcode read abundance (log10)” value came to 0.0418.

As for “CTAAGAACTTGGGTTCTAACCTGTTGCGT (site CTAAGAACTAC)”, the “recombinant barcode read abundance (log10)” value stood at 2.1.

As to “CTAAGAACTTGGGTTCTAACCTGTTGCGT (site CTAAGAACTAG)”, the “recombinant barcode read abundance (log10)” value stood at 0.264.

Regarding “CTAAGAACTTGGGTTCTAACCTGTTGCGT (site CTAAGAACTAT)”, the “recombinant barcode read abundance (log10)” value is 0.615.

With “CTAAGCGCTTGGGTTCTAACCTGTTGCCA (site CTAAGAGCTTG)”, the “recombinant barcode read abundance (log10)” value came to 0.145.

With “CTAAGCGCTTGGGTTCTAACCTGTTGCCA (site CTAAGCGCTTG)”, the “recombinant barcode read abundance (log10)” value came to 0.647.

Turning to “CTAAGCGCTTGGGTTCTAACCTGTTGCCA (site CTAAGGGCTTG)”, the “recombinant barcode read abundance (log10)” value came to 0.205.

In the case of “CTAAGCGCTTGGGTTCTAACCTGTTGCCA (site CTAAGTGCTTG)”, the “recombinant barcode read abundance (log10)” value was 0.0786.

For “CTAAGCTCTTGGGTTCTAACCTGTTGCTT (site CTAAGCTCTAA)”, the “recombinant barcode read abundance (log10)” value was found to be 0.0662.

As for “CTAAGCTCTTGGGTTCTAACCTGTTGCTT (site CTAAGCTCTCA)”, the “recombinant barcode read abundance (log10)” value was 0.133.

On to “CTAAGCTCTTGGGTTCTAACCTGTTGCTT (site CTAAGCTCTGA)”, for which the “recombinant barcode read abundance (log10)” value is 0.0802.

For “CTAAGCTCTTGGGTTCTAACCTGTTGCTT (site CTAAGCTCTTA)”, the “recombinant barcode read abundance (log10)” value is 0.107.

On to “CTAAGGCCTTGGGTTCTAACCTGTTGCCT (site CTAAAGCCTAG)”, for which the “recombinant barcode read abundance (log10)” value was found to be 0.377.

In the case of “CTAAGGCCTTGGGTTCTAACCTGTTGCCT (site CTAAGGCCTAG)”, the “recombinant barcode read abundance (log10)” value came out at 0.162.

As to “CTAAGGTCTTGGGTTCTAACCTGTTGCTA (site CTAAGGTCTTA)”, the “recombinant barcode read abundance (log10)” value turned out to be 1.64.

With “CTAAGGTCTTGGGTTCTAACCTGTTGCTA (site TCTTTAGCTCT)”, the “recombinant barcode read abundance (log10)” value stood at 0.123.

“CTAAGTGCTTGGGTTCTAACCTGTTGCCA (site CTAAGAGCTTG)”: the “recombinant barcode read abundance (log10)” value is 0.0354.

With “CTAAGTGCTTGGGTTCTAACCTGTTGCCA (site CTAAGCGCTTG)”, the “recombinant barcode read abundance (log10)” value came out at 0.0378.

Consider “CTAAGTGCTTGGGTTCTAACCTGTTGCCA (site CTAAGGGCTTG)”, for which the “recombinant barcode read abundance (log10)” value was determined as 0.0841.

Turning to “CTAAGTGCTTGGGTTCTAACCTGTTGCCA (site CTAAGTGCTTG)”, the “recombinant barcode read abundance (log10)” value was found to be 0.35.

In the case of “CTAATATCTTGGGTTCTAACCTGTTGCCA (site CTAATATCTTG)”, the “recombinant barcode read abundance (log10)” value was determined as 0.0293.

As to “CTAATATCTTGGGTTCTAACCTGTTGCCA (site CTCATATCTTG)”, the “recombinant barcode read abundance (log10)” value came to 0.128.

As for “CTAATGTCTTGGGTTCTAACCTGTTGCCA (site CTAATGTCTAG)”, the “recombinant barcode read abundance (log10)” value came out at 0.622.

Turning to “CTAATGTCTTGGGTTCTAACCTGTTGCCA (site CTAATGTCTTG)”, the “recombinant barcode read abundance (log10)” value turned out to be 0.26.

As for “CTAATTACTTGGGTTCTAACCTGTTGCAA (site CTAAGTACTCT)”, the “recombinant barcode read abundance (log10)” value was found to be 0.0716.

Consider “CTAATTACTTGGGTTCTAACCTGTTGCAA (site CTAATTACTTT)”, for which the “recombinant barcode read abundance (log10)” value was 0.094.
